The source of these data is patent EP0670321A1, “Oxazopyrroloquinoline deivatives and use thereof” (MITSUBISHI GAS CHEMICAL COMPANY, INC., priority 1994, dated 1995).

A value given as a limit tells only on which side of the number the result lay.

The target of this assay is T1, recombinant human aldose reductase (Homo sapiens, UniProt P15121).
T1 construct: made in house; host or cells: Baculovirus-insect cell system
The experiment in a line: Aldose reductase inhibition (decrease with time in absorbance at 340 nm, NADPH / DL-glyceraldehyde). The assay is classed as biochemical. To be noted: 0.1M phosphoric acid buffer, 25°C, absorbance 340 nm, read-out: IC₅₀. The text has this:
A large amount of recombinant human aldose reductase was expressed in a Baculovirus-insect cell system by Nishimura et al method (Nishimura et al, J. Biol. Chem. volume 265, pages 9,788-9,792, 1990 and Biochem. Biophys. Acta. volume 1,078, pages 171-178, 1991; and Tanimoto and Nishimura, Experimental Medicine, volume 9, No. 5 (extra issue), pages 165-170, 1991). Purification was made by affinity chromatography, gel filtration and chromatofocusing until electrophoretically uniform aldose reductase was obtained.
To 0.1M phosphoric acid buffer solution (0.8 ml) was added 3mM NADPH (0.05 ml), DL-glyceral-dehyde (0.1 ml) and distilled water (0.04 ml). The mixture was left to stand at 25°C for three minutes. To the mixture was added aldose reductase solution (0.01 ml) in order to start a reaction. Measurement was made of reduction with time in absorbance of 340 nm at 25°C. The amount of enzyme that consumes 1µ mole of […] per minute was taken as a unit.
Enzyme activities were measured after aqueous inhibiting substance solution (0.04 ml each) having various concentrations in place of the distilled water (0.04 ml) under the same conditions as those for aldose reductase. IC₅₀ values that inhibit enzyme activity by 50% were calculated on the basis of enzyme activities measured in the presence or absence of the inhibitors. The inhibitors used include: 8,10-dicarboxy-2-methoxycarbonyl-1H-oxazo[5,4-h] pyrrolo[2,3-f]quinoline (Compound 1, abbreviated OPQ-8,10-DCA-2-ME); 8-carboxy-2,10-dimethoxycarbonyl-1H-oxazo[5,4-h] pyrrolo-[2,3-f]quinoline (Compound 2, abbreviated OPQ-8-CA-2,10-DME); 10-(N-n-amyl)carbamoyl-2,8-dicarboxy-1H-oxazo [5,4-h]pyrrolo[2,3-f]quinoline (Compound 3, abbreviated OPQ-2,8-DCA-10-AA); 10-(N-n-amyl)carbamoyl-8-carboxy-2-methoxy-carbonyl-1H-oxazo[5,4-h]pyrrolo[2,3-f]quinoline (Compound 4, abbreviated OPQ-8-CA-2-ME-10-AA); 2,10-dicarboxy-8-methoxycarbonyl-1H-oxazo[5,4-h] pyrrolo-[2,3-f]quinoline (abbreviated OPQ-2,10-DCA-8-ME); 10-carboxy-2,8-dimethoxycarbonyl-1H-oxazo[5,4-h] pyrrolo-[2,3-f]quinoline (abbreviated OPQ-10-CA-2,8-DME); 2,8,10-trimethoxycarbonyl-1H-oxazo[5,4-h]pyrrolo [2,3-f]-quinoline (abbreviated OPQ-2,8,10-TME); 10-carboxy-2-methoxycarbonyl-1H-oxazo[5,4-h] pyrrolo-[2,3-f]quinoline (abbreviated OPQ-10-CA-2-ME); 8,10-diethoxycarbonyl-2-methoxycarbonyl-1H-oxazo [5,4-hj]yrrolo[2,3-f]quinoline (abbreviated OPQ-2-ME-8,10-DME); 10-(N-n-amyl) carbamoyl-2,8-dimethoxycarbonyl-1H-oxazo[5,4-h]pyrrolo[2,3-f]quinoline (abbreviated OPQ-2,8-DME-10-AA); and 2,8,10-tri[(N-n-amyl)carbamoyl]-1H-oxazo[5,4-h] pyrrolo-[2,3-f]quinoline (abbreviated OPQ-2,8,10-TAA).
As for `COC(=O)c1cc2c([nH]1)c1c(C(=O)OC)cc(C(=O)O)nc1c1ncoc21` [Compound 2, 8-carboxy-2,10-dimethoxycarbonyl-1H-oxazo[5,4-h] pyrrolo-[2,3-f]quinoline], the IC50 turned out to be 580 nM. As for `COC(=O)c1cc2c([nH]1)c1c(C(=O)O)ccnc1c1ncoc21` [OPQ-10-CA-2ME, 10-carboxy-2-methoxycarbonyl-1H-oxazo[5,4-h] pyrrolo-[2,3-f]quinoline], the figure is 1700 nM; as for `COC(=O)c1cc(C(=O)OC)c2c(n1)c1ncoc1c1cc(C(=O)OC)[nH]c12` [OPQ-2,8,10-TME, 2,8,10-trimethoxycarbonyl-1H-oxazo[5,4-h]pyrrolo [2,3-f]-quinoline], over 100000 nM. As to `COC(=O)c1cc(C(=O)O)c2c(n1)c1ncoc1c1cc(C(=O)O)[nH]c12` [OPQ-2,10-DCA-8-ME, 2,10-dicarboxy-8-methoxycarbonyl-1H-oxazo[5,4-h] pyrrolo-[2,3-f]quinoline], the IC50 came out at 2900 nM. `COC(=O)c1cc2c([nH]1)c1c(C(=O)O)cc(C(=O)O)nc1c1ncoc21` [Compound 1, 8,10-dicarboxy-2-methoxycarbonyl-1H-oxazo[5,4-h] pyrrolo[2,3-f]quinoline]: the IC50 is 260 nM.

For `CCCCCNC(=O)c1cc(C(=O)O)nc2c3ncoc3c3cc(C(=O)OC)[nH]c3c12` [Compound 4, 10-(N-n-amyl)carbamoyl-8-carboxy-2-methoxy-carbonyl-1H-oxazo[5,4-h]pyrrolo[2,3-f]quinoline], the IC50 amounted to 190 nM.

Take `CCOC(=O)c1cc(C(=O)OCC)c2c(n1)c1ncoc1c1cc(C(=O)OC)[nH]c12` [OPQ-2ME-8,10-DEE, 8,10-diethoxycarbonyl-2-methoxycarbonyl-1H-oxazo [5,4-hj]yrrolo[2,3-f]quinoline]: the IC50 was over 100000 nM. On to `CCCCCNC(=O)c1cc(C(=O)NCCCCC)c2c(n1)c1ncoc1c1cc(C(=O)NCCCCC)[nH]c12` [OPQ-2,8,10-TAA, 2,8,10-tri[(N-n-amyl)carbamoyl]-1H-oxazo[5,4-h] pyrrolo-[2,3-f]quinoline], for which the IC50 worked out at 77000 nM. Regarding `COC(=O)c1cc(C(=O)O)c2c(n1)c1ncoc1c1cc(C(=O)OC)[nH]c12` [OPQ-10-CA-2,8-DME, 10-carboxy-2,8-dimethoxycarbonyl-1H-oxazo[5,4-h] pyrrolo-[2,3-f]quinoline], the IC50 turned out to be 1300 nM. To `CCCCCNC(=O)c1cc(C(=O)O)nc2c3ncoc3c3cc(C(=O)O)[nH]c3c12` [Compound 3, 10-(N-n-amyl)carbamoyl-2,8-dicarboxy-1H-oxazo [5,4-h]pyrrolo[2,3-f]quinoline] belongs 260 nM. For the compound `CCCCCNC(=O)c1cc(C(=O)OC)nc2c3ncoc3c3cc(C(=O)OC)[nH]c3c12` [OPQ-2,8-DME-10-AA, 10-(N-n-amyl) carbamoyl-2,8-dimethoxycarbonyl-1H-oxazo[5,4-h]pyrrolo[2,3-f]quinoline], the IC50 is 93000 nM.
